According to the NIST ThermoML archive (doi:10.1021/acs.jced.5b00385):

Settings: Liquid, Vibrating tube method

FCC(F)(F)F [1,1,1,2-tetrafluoroethane]
Settings | mass density [kg/m3]
283.46 K, 1000 kPa | 1262.57
283.46 K, 5000 kPa | 1279.58
283.47 K, 10000 kPa | 1298.12
283.47 K, 20000 kPa | 1329.18
283.47 K, 40000 kPa | 1377.11
283.47 K, 60000 kPa | 1414.44
283.47 K, 80000 kPa | 1445.46
303.37 K, 10000 kPa | 1236.85
303.37 K, 20000 kPa | 1275.77
303.38 K, 1000 kPa | 1188.07
303.38 K, 5000 kPa | 1212.13
303.38 K, 40000 kPa | 1332.36
303.38 K, 60000 kPa | 1374.64
303.38 K, 80000 kPa | 1408.98
323.15 K, 3000 kPa | 1119.19
323.16 K, 5000 kPa | 1136.38
323.16 K, 10000 kPa | 1170.84
323.16 K, 20000 kPa | 1220.65
323.16 K, 40000 kPa | 1287.71
323.16 K, 60000 kPa | 1335.49
323.16 K, 80000 kPa | 1373.39
342.97 K, 3000 kPa | 1014.76
342.97 K, 5000 kPa | 1045.25
342.98 K, 10000 kPa | 1097.42
342.98 K, 20000 kPa | 1162.91
342.98 K, 40000 kPa | 1242.75
342.98 K, 80000 kPa | 1338.34
342.99 K, 60000 kPa | 1296.65
362.68 K, 5000 kPa | 922.4
362.68 K, 10000 kPa | 1013.83
362.68 K, 20000 kPa | 1102.6
362.68 K, 40000 kPa | 1197.86
362.68 K, 60000 kPa | 1258.47
362.68 K, 80000 kPa | 1304.15

CCCCC(CC)COC(C)=O (stereo not drawn) [2-ethylhexyl acetate]
Settings | mass density [kg/m3]
283.45 K, 80000 kPa | 925.84
283.45 K, 90000 kPa | 930.33
283.45 K, 100000 kPa | 934.63
283.46 K, 100 kPa | 880.38
283.46 K, 1000 kPa | 881.05
283.46 K, 40000 kPa | 905.65
283.46 K, 50000 kPa | 911.06
283.46 K, 60000 kPa | 916.18
283.46 K, 70000 kPa | 921.22
283.47 K, 3000 kPa | 882.48
283.47 K, 5000 kPa | 883.9
283.47 K, 30000 kPa | 899.95
283.48 K, 10000 kPa | 887.37
283.48 K, 15000 kPa | 890.63
283.48 K, 20000 kPa | 893.87
283.48 K, 25000 kPa | 896.91
293.44 K, 1000 kPa | 872.61
293.44 K, 3000 kPa | 874.12
293.45 K, 5000 kPa | 875.6
293.45 K, 10000 kPa | 879.24
293.45 K, 15000 kPa | 882.73
293.45 K, 20000 kPa | 886.08
293.45 K, 25000 kPa | 889.32
293.45 K, 30000 kPa | 892.46
293.45 K, 40000 kPa | 898.43
293.45 K, 60000 kPa | 909.42
293.45 K, 70000 kPa | 914.46
293.45 K, 80000 kPa | 919.33
293.45 K, 100000 kPa | 928.38
293.46 K, 100 kPa | 871.89
293.46 K, 50000 kPa | 904.07
293.46 K, 90000 kPa | 923.91
303.38 K, 1000 kPa | 863.7
303.39 K, 3000 kPa | 865.32
303.39 K, 15000 kPa | 874.36
303.39 K, 40000 kPa | 890.82
303.4 K, 5000 kPa | 866.89
303.4 K, 10000 kPa | 870.7
303.4 K, 20000 kPa | 877.88
303.4 K, 25000 kPa | 881.31
303.4 K, 30000 kPa | 884.55
303.4 K, 50000 kPa | 896.67
303.4 K, 60000 kPa | 902.22
303.4 K, 70000 kPa | 907.5
303.4 K, 80000 kPa | 912.5
303.4 K, 90000 kPa | 917.28
303.41 K, 100 kPa | 862.94
303.41 K, 100000 kPa | 921.87
313.34 K, 100 kPa | 854.53
313.34 K, 1000 kPa | 855.28
313.34 K, 3000 kPa | 857.04
313.34 K, 5000 kPa | 858.73
313.34 K, 10000 kPa | 862.77
313.34 K, 15000 kPa | 866.66
313.34 K, 20000 kPa | 870.34
313.34 K, 25000 kPa | 873.92
313.34 K, 30000 kPa | 877.34
313.34 K, 40000 kPa | 883.88
313.34 K, 50000 kPa | 889.98
313.34 K, 60000 kPa | 895.7
313.34 K, 70000 kPa | 901.14
313.34 K, 80000 kPa | 906.27
313.34 K, 100000 kPa | 915.93
313.35 K, 90000 kPa | 911.19
323.15 K, 100 kPa | 845.74
323.15 K, 50000 kPa | 882.8
323.15 K, 60000 kPa | 888.76
323.15 K, 70000 kPa | 894.49
323.15 K, 80000 kPa | 899.83
323.15 K, 90000 kPa | 904.91
323.15 K, 100000 kPa | 909.78
323.16 K, 1000 kPa | 846.56
323.16 K, 3000 kPa | 848.36
323.16 K, 5000 kPa | 850.14
323.16 K, 10000 kPa | 854.42
323.16 K, 25000 kPa | 866.13
323.16 K, 30000 kPa | 869.71
323.16 K, 40000 kPa | 876.47
323.17 K, 15000 kPa | 858.49
323.17 K, 20000 kPa | 862.39
332.99 K, 100 kPa | 836.98
333 K, 1000 kPa | 837.85
333 K, 3000 kPa | 839.78
333 K, 5000 kPa | 841.66
333 K, 10000 kPa | 846.16
333 K, 15000 kPa | 850.47
333 K, 20000 kPa | 854.55
333 K, 25000 kPa | 858.45
333.01 K, 30000 kPa | 862.21
333.01 K, 40000 kPa | 869.27
333.01 K, 50000 kPa | 875.85
333.01 K, 60000 kPa | 882.02
333.01 K, 70000 kPa | 888.07
333.01 K, 80000 kPa | 893.58
333.01 K, 90000 kPa | 898.82
333.01 K, 100000 kPa | 903.81
342.95 K, 100 kPa | 828.32
342.96 K, 1000 kPa | 829.27
342.96 K, 3000 kPa | 831.31
342.96 K, 5000 kPa | 833.3
342.96 K, 10000 kPa | 838.06
342.96 K, 15000 kPa | 842.59
342.96 K, 20000 kPa | 846.9
342.97 K, 25000 kPa | 851
342.97 K, 30000 kPa | 854.91
342.97 K, 40000 kPa | 862.31
342.97 K, 50000 kPa | 869.15
342.97 K, 60000 kPa | 875.57
342.97 K, 70000 kPa | 881.64
342.97 K, 80000 kPa | 887.28
342.97 K, 90000 kPa | 892.73
342.97 K, 100000 kPa | 897.85
352.78 K, 100 kPa | 819.64
352.79 K, 1000 kPa | 820.65
352.79 K, 3000 kPa | 822.83
352.79 K, 5000 kPa | 824.93
352.79 K, 10000 kPa | 830
352.79 K, 15000 kPa | 834.75
352.79 K, 20000 kPa | 839.27
352.79 K, 25000 kPa | 843.56
352.79 K, 30000 kPa | 847.66
352.79 K, 40000 kPa | 855.34
352.79 K, 50000 kPa | 862.46
352.79 K, 60000 kPa | 869.08
352.79 K, 70000 kPa | 875.42
352.79 K, 90000 kPa | 886.84
352.79 K, 100000 kPa | 892.14
352.8 K, 80000 kPa | 881.29
362.64 K, 100 kPa | 810.91
362.64 K, 1000 kPa | 811.97
362.64 K, 3000 kPa | 814.28
362.64 K, 5000 kPa | 816.51
362.64 K, 10000 kPa | 821.85
362.64 K, 15000 kPa | 826.87
362.64 K, 20000 kPa | 831.61
362.64 K, 25000 kPa | 836.09
362.64 K, 30000 kPa | 840.38
362.64 K, 50000 kPa | 855.78
362.64 K, 60000 kPa | 862.65
362.64 K, 70000 kPa | 869.14
362.64 K, 80000 kPa | 875.25
362.64 K, 90000 kPa | 880.97
362.64 K, 100000 kPa | 886.45
362.65 K, 40000 kPa | 848.4
